Earlier results on one compound are cited in patent US20150024042A1 (POZEN INC., priority 2011, published 2015).

The structures appear in SMILES notation.

For data set [1] the following is noted: 95% CI 0.84 to 0.98.
The conditions of data set [2]: repeated oral doses of 75 mg clopidogrel (base).
The conditions of data set [3]: in vivo.

Regarding `COC(=O)[C@H](c1ccccc1Cl)N1CCc2sccc2C1` [clopidogrel], the “cardiovascular events compared with aspirin, OR” value in data set [1] is given as 0.91. Besides, the “time of peak plasma levels of the main circulating metabolite after dosing” value in data set [2] is on record as “approximately one”. Moreover, in data set [3], the “gastrointestinal hemorrhage, incidence” value was 2.0 % annually.
